This passage reports TGI results from PubChem BioAssay (NCI).

Each structure is given as a SMILES string.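 In this assay, cells in 96-well plates receive the compound at five concentrations for 48 hours. Endpoints are linearly interpolated between the surrounding concentrations. At the TGI there is no net growth.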

For one experiment, the system named is DLD-1 colon. The experiment is described as follows: NCI anticancer screen, dose series, 48 h.
With `O=C(N/N=C/c1ccccc1O)c1cccc([N+](=O)[O-])c1`, the TGI is greater than 100 µM.
On the same count and under the same terms, in the case of `N#C/C(=C/c1ccsc1)C(=O)c1ccccc1` it was greater than 100 µM; in that of `Clc1ccc(C2N3CCCCC3[C@@H]3c4[nH]c5ccccc5c4CCN23)cc1` (stereo partly drawn), greater than 100 µM; in that of `CCCCCCCCCCCCCC(=O)OC1CC(=O)OC1CO` (stereo not drawn), greater than 100 µM.

A further experiment has as its system UO-31 renal. The experiment is described as follows: NCI anticancer screen, dose series, 48 h.
In turn, `O=C(N/N=C/c1ccccc1O)c1cccc([N+](=O)[O-])c1` gave a TGI of 56.5 µM.
On the same count and under the same terms, the value for `N#C/C(=C/c1ccsc1)C(=O)c1ccccc1` was greater than 100 µM; that for `Clc1ccc(C2N3CCCCC3[C@@H]3c4[nH]c5ccccc5c4CCN23)cc1` (stereo partly drawn) was greater than 100 µM.
Still for that read-out and setting: the value for `CCCCCCCCCCCCCC(=O)OC1CC(=O)OC1CO` (stereo not drawn) was 92.6 µM.

The test system of the next experiment is MOLT-4 leukemia. The experiment is described as follows: NCI anticancer screen, dose series, 48 h.
The compound `O=C(N/N=C/c1ccccc1O)c1cccc([N+](=O)[O-])c1` showed a TGI greater than 100 µM.
As for `N#C/C(=C/c1ccsc1)C(=O)c1ccccc1`, the TGI was greater than 100 µM.
Same read-out and setting: in the case of `Clc1ccc(C2N3CCCCC3[C@@H]3c4[nH]c5ccccc5c4CCN23)cc1` (stereo partly drawn) it was greater than 100 µM; in that of `CCCCCCCCCCCCCC(=O)OC1CC(=O)OC1CO` (stereo not drawn), 52.1 µM.

In the next experiment the test system is SF-268 CNS. The experiment can be described thus: NCI anticancer screen, dose series, 48 h.
As to `O=C(N/N=C/c1ccccc1O)c1cccc([N+](=O)[O-])c1`, the TGI was greater than 100 µM.
The same measure, in the same setting: the value for `N#C/C(=C/c1ccsc1)C(=O)c1ccccc1` was greater than 100 µM.
The compound `Clc1ccc(C2N3CCCCC3[C@@H]3c4[nH]c5ccccc5c4CCN23)cc1` (stereo partly drawn) had a TGI greater than 100 µM.
The same measure, in the same setting: in the case of `CCCCCCCCCCCCCC(=O)OC1CC(=O)OC1CO` (stereo not drawn) it was greater than 100 µM.

Another experiment relates to NCI-H522 lung. The experiment is described as follows: NCI anticancer screen, dose series, 48 h.
Regarding `O=C(N/N=C/c1ccccc1O)c1cccc([N+](=O)[O-])c1`, the TGI is greater than 100 µM.
`N#C/C(=C/c1ccsc1)C(=O)c1ccccc1` showed a TGI greater than 100 µM.

The test system of a further experiment is IGROV1 ovarian. The experiment is described as follows: NCI anticancer screen, dose series, 48 h.
In the case of `O=C(N/N=C/c1ccccc1O)c1cccc([N+](=O)[O-])c1`, the TGI is 79.6 µM.
The same measure, in the same setting: in the case of `Clc1ccc(C2N3CCCCC3[C@@H]3c4[nH]c5ccccc5c4CCN23)cc1` (stereo partly drawn) it was greater than 100 µM; in that of `CCCCCCCCCCCCCC(=O)OC1CC(=O)OC1CO` (stereo not drawn), greater than 100 µM.

A further experiment relates to SN12C renal. The experiment is described as follows: NCI anticancer screen, dose series, 48 h.
The compound `O=C(N/N=C/c1ccccc1O)c1cccc([N+](=O)[O-])c1` gave a TGI greater than 100 µM.
On the same count and under the same terms, in the case of `N#C/C(=C/c1ccsc1)C(=O)c1ccccc1` it was greater than 100 µM.
On the same count and under the same terms, in the case of `Clc1ccc(C2N3CCCCC3[C@@H]3c4[nH]c5ccccc5c4CCN23)cc1` (stereo partly drawn) it was greater than 100 µM.
On the same count and under the same terms, in the case of `CCCCCCCCCCCCCC(=O)OC1CC(=O)OC1CO` (stereo not drawn) it was greater than 100 µM.

In a further experiment the test system is U251 CNS. The experiment is described as follows: NCI anticancer screen, dose series, 48 h.
With `O=C(N/N=C/c1ccccc1O)c1cccc([N+](=O)[O-])c1`, the TGI is greater than 100 µM.
`N#C/C(=C/c1ccsc1)C(=O)c1ccccc1`: the TGI was greater than 100 µM.
On to `Clc1ccc(C2N3CCCCC3[C@@H]3c4[nH]c5ccccc5c4CCN23)cc1` (stereo partly drawn), for which the TGI is greater than 100 µM.
The same measure, in the same setting: the value for `CCCCCCCCCCCCCC(=O)OC1CC(=O)OC1CO` (stereo not drawn) was greater than 100 µM.

Another experiment concerns UACC-257 melanoma. The experiment can be described thus: NCI anticancer screen, dose series, 48 h.
The compound `O=C(N/N=C/c1ccccc1O)c1cccc([N+](=O)[O-])c1` displayed a TGI greater than 60.6 µM.
In turn, `N#C/C(=C/c1ccsc1)C(=O)c1ccccc1` yielded a TGI greater than 100 µM.
The same measure, in the same setting: the value for `Clc1ccc(C2N3CCCCC3[C@@H]3c4[nH]c5ccccc5c4CCN23)cc1` (stereo partly drawn) was greater than 100 µM; that for `CCCCCCCCCCCCCC(=O)OC1CC(=O)OC1CO` (stereo not drawn) was greater than 100 µM.

The next experiment relates to SF-539 CNS. The experiment is described as follows: NCI anticancer screen, dose series, 48 h.
`O=C(N/N=C/c1ccccc1O)c1cccc([N+](=O)[O-])c1` returned a TGI greater than 82.1 µM.
On the same count and under the same terms, the value for `N#C/C(=C/c1ccsc1)C(=O)c1ccccc1` was greater than 100 µM.
Same read-out and setting: the value for `Clc1ccc(C2N3CCCCC3[C@@H]3c4[nH]c5ccccc5c4CCN23)cc1` (stereo partly drawn) was greater than 100 µM; that for `CCCCCCCCCCCCCC(=O)OC1CC(=O)OC1CO` (stereo not drawn) was greater than 100 µM.

The next experiment relates to SF-295 CNS. The experiment can be described thus: NCI anticancer screen, dose series, 48 h.
With `O=C(N/N=C/c1ccccc1O)c1cccc([N+](=O)[O-])c1`, the TGI amounted to 68.3 µM.
`N#C/C(=C/c1ccsc1)C(=O)c1ccccc1` displayed a TGI greater than 100 µM.
Same read-out and setting: in the case of `Clc1ccc(C2N3CCCCC3[C@@H]3c4[nH]c5ccccc5c4CCN23)cc1` (stereo partly drawn) it was greater than 100 µM.
As to `CCCCCCCCCCCCCC(=O)OC1CC(=O)OC1CO` (stereo not drawn), the TGI was 45.5 µM.

The next experiment deals with KM12 colon. The experiment is described as follows: NCI anticancer screen, dose series, 48 h.
For the compound `O=C(N/N=C/c1ccccc1O)c1cccc([N+](=O)[O-])c1`, the TGI was greater than 100 µM.
Still for that read-out and setting: in the case of `N#C/C(=C/c1ccsc1)C(=O)c1ccccc1` it was greater than 100 µM; in that of `CCCCCCCCCCCCCC(=O)OC1CC(=O)OC1CO` (stereo not drawn), 56.7 µM.

In the next experiment the test system is HL-60(TB) leukemia. The experiment is described as follows: NCI anticancer screen, dose series, 48 h.
Regarding `O=C(N/N=C/c1ccccc1O)c1cccc([N+](=O)[O-])c1`, the TGI was greater than 39.3 µM.
Take `N#C/C(=C/c1ccsc1)C(=O)c1ccccc1`: the TGI was greater than 100 µM.
`Clc1ccc(C2N3CCCCC3[C@@H]3c4[nH]c5ccccc5c4CCN23)cc1` (stereo partly drawn) yielded a TGI of 55 µM.
Still for that read-out and setting: the value for `CCCCCCCCCCCCCC(=O)OC1CC(=O)OC1CO` (stereo not drawn) was 63.9 µM.

In another experiment the test system is A498 renal. The experiment can be described thus: NCI anticancer screen, dose series, 48 h.
As to `O=C(N/N=C/c1ccccc1O)c1cccc([N+](=O)[O-])c1`, the TGI is greater than 100 µM.
Same read-out and setting: in the case of `Clc1ccc(C2N3CCCCC3[C@@H]3c4[nH]c5ccccc5c4CCN23)cc1` (stereo partly drawn) it was greater than 100 µM; in that of `CCCCCCCCCCCCCC(=O)OC1CC(=O)OC1CO` (stereo not drawn), greater than 100 µM.

In another experiment the test system is LXFL 529 NSCLC. The experiment can be described thus: NCI anticancer screen, dose series, 48 h.
`O=C(N/N=C/c1ccccc1O)c1cccc([N+](=O)[O-])c1` had a TGI greater than 100 µM.
Same read-out and setting: in the case of `N#C/C(=C/c1ccsc1)C(=O)c1ccccc1` it was greater than 100 µM.
